Literature values, collected in US20060198926A1, “ALPHA-PYRONE COMPOSITION FOR CONTROLLING CRAVING AND AS A SUBSTITUTE FOR ALCOHOL” (priority 1999, published 2006).

Test system: dopaminergic neurons of the nucleus accumbens
Conditions: administered in vivo by microdialysis into the nucleus accumbens (Baum 1998)

Row | SMILES | levels of dopamine in the nucleus accumbens
1 | COc1cc(/C=C/c2ccccc2)oc(=O)c1 [desmethoxyyangonin] | increase in dopamine
2 | COc1ccc(/C=C/c2cc(OC)cc(=O)o2)cc1 [yangonin] | decreases dopamine to undetectable levels
